# Measurements: US20230075822A1, “USE OF CASTALAGIN OR ANALOGS THEREOF FOR ANTI-CANCER EFFICACY AND TO INCREASE THE RESPONSE TO IMMUNE CHECKPOINT INHIBITORS” (THE ROYAL INSTITUTION FOR THE ADVANCEMENT OF …, priority 2020, published 2023)
# System: MCA-205 sarcoma
# Experiment: Subcutaneous MCA-205 sarcoma tumor model (anti-PD-1 sensitive), SPF-reared mice
# Format: in vivo, C57BL/6 mice
# Settings: 0.85 mg/kg per mouse daily oral gavage; in contrast to castalagin
# Protocol: FIG. 1A is a schematic of the protocol used to study the effect of a Camu camu extract (CC) alone and additive effect when combined to anti-PD-1 therapy in a murine tumor model sensitive to anti-PD-1 therapy. Syngeneic C57BL/6 mice were implanted with 0.8×10^6 MCA-205 sarcoma, subcutaneously and treated intraperitoneally (i.p.) when tumors reached 20 to 35 mm^2 in size with anti-PD-1 mAb (250 μg/mouse; clone RMP1-14,) or isotype control (clone 2A3) with or without daily oral gavage with 200 mg/kg of [NT] Powder from SunFood). Murine studies. All animal studies were approved by the Institutional Animal Care Committee (CIPA) and carried out in compliance with the Canadian Council on Animal Care guidelines. Murine experiments were conducted using seven-week-old female C57BL/6 mice, obtained from Charles River, Canada. Germ-free female C57BL/6 mice were purchased from the International Microbiome Centre Germ-Free Facility (University of Calgary, Canada) and maintained at the CR-CHUM Germ-Free Facility. Cell culture, reagents and tumor cell lines. MCA-205 fibrosarcoma cells and E0771 mammary adenocarcinoma cells, class I MHC H-2b syngeneic cell lines for C57BL/6 mice, were used for this study. MCA-205 cells were cultured at 37° C. in the presence of 5% CO2 in Roswell Park Memorial Institute (RPMI) 1640 (Gibco-lnvitrogen) containing 10% Fetal bovine serum (FBS) (Wisent), 2 mM L-glutamine (Wisent), 100 IU/ml penicillin/streptomycin (Wisent), 1 mM sodium pyruvate (Wisent) and MEM non-essential amino acids (Gibco-lnvitrogen). E0771 cells were cultured at 37° C. in the presence of 5% CO2 in Dulbecco's Modified Eagle's Medium (DMEM) (Gibco-lnvitrogen) containing 10% FBS (Wisent), 2 mM L-glutamine, 100 IU/ml penicillin/streptomycin (Wisent), 1 mM sodium pyruvate (Wisent). Subcutaneous model of MCA-205 sarcoma and E0771 breast cancer. Syngeneic C57BL/6 mice were implanted with 0.8×10^6 MCA-205 or 0.5×10^6 E0771 subcutaneously. When tumors reached 20 to 35 mm^2 in size, mice were treated four times (or two times for flow cytometry analysis, see section below) intraperitoneally (i.p.) every three day with anti-PD-1 monoclonal antibody (mAb) (250 μg/mouse; clone RMP1-14, BioXcell) or isotype control (clone 2A3, BioXcell). Upon treatment initiation, mice received a daily oral gavage with the following products: Myrciaria dubia, [NT] raw extract (Sunfood) (200 mg/kg per mouse), fractions from the extraction round 1 (P, INT, NP, Insol) (40.18 mg/kg per mouse), fractions from the extraction round 2 (P1, P2, P3 and P4) (equivalent to fraction P dose of 40.18 mg/kg per mouse), […] (extracted from CC, see isolation process below) (0.85 mg/kg per mouse), ellagic acid (0.85 mg/kg per mouse) (Sigma-Aldrich), urolithin A (0.85 mg/kg per mouse) (Sigma-Aldrich), […] (0.5 mg/kg per mouse) (PhytoProof®, Sigma-Aldrich) and castalagin at different concentration: 1/8, 1/6, 1/4, 1/2 of the standard concentration, at the standard concentration (0.85 mg/kg per mouse), 1.5-fold (1.25 mg/kg per mouse) and three-fold increase concentration (2.55 mg/kg per mouse) (PhytoProof©, Sigma-Aldrich or isolated from food grade oak, see isolation process below). In the control group mice received daily oral gavage with water (100 μL) Tumor area was routinely monitored every three days by means of a caliper. In the depletion experiments, we used the anti-CD8 mAb (150 μg/mouse; clone 53-6.7, BioXcell) or isotype control (clone 2A3, BioXcell.
row,Structure (SMILES),antitumor effect (tumor size at sacrifice)
1,"O=c1oc2c(O)c(O)cc3c(=O)oc4c(O)c(O)cc1c4c23 [ellagic acid, reference compound]",no antitumor effects were observed
2,"O=c1oc2cc(O)ccc2c2ccc(O)cc12 [urolithin A, reference compound]",no antitumor effects were observed
3,"O=C1OC[C@H]2OC(=O)c3cc(O)c(O)c(O)c3-c3c(O)c(O)c(O)c4c3C(=O)O[C@H]([C@H]3OC(=O)c5c-4c(O)c(O)c(O)c5[C@H]3O)[C@@H]2OC(=O)c2cc(O)c(O)c(O)c2-c2c1cc(O)c(O)c2O [vescalagin, reference compound]",no antitumor effects were observed
